The METLIN SMRT retention time set (Domingo-Almenara et al. 2019)

Test: gradient 5% acetonitrile 3 min, to 50% in 2 min, to 85% in 15 min, held 3 min, 100 µL/min
Settings: column: Zorbax Extend-C18 2.1 x 50 mm; eluents: water / acetonitrile, 0.1% formic acid
Outline: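 The system's dead and dwell volumes were 40 μL and 900 μL, with a Zorbax Extend-C18 column (2.1 × 50 mm, 1.8 μm) run at 100 μL/min in water and acetonitrile containing 0.1% formic acid each. Pure standards were analyzed in mixtures of ~100 molecules by HPLC–quadrupole time-of-flight mass spectrometry in positive and negative ionization mode. Retention time was assigned from computationally picked, manually inspected adduct peaks.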

Structure (SMILES) | RP-LC retention time
CCc1ccc(N2CC(c3noc(-c4ccco4)n3)CC2=O)cc1 (stereo not drawn) | 921 s
Fc1ccc(-c2nnc(-c3ccc(-n4ccnc4)nc3)o2)cc1 | 648 s
Cc1ccc(-n2nc3c(N4CCCC(C(=O)NCc5ccccc5C)C4)nnc(C)c3c2C)cc1 (stereo not drawn) | 779 s
O=C(c1ccc(-c2cccs2)nc1)N1CCN(c2ccc(F)cc2)CC1 | 950 s
CCCn1ccc2sc(C)c(C(=O)NCc3ccccc3Cl)c2c1=O | 980 s
O=C(COC(=O)c1ccco1)Nc1ccc2c(c1)OCO2 | 688 s
Cc1cccc2nc(-c3ccc(Cl)cc3)c(Nc3ccc4c(c3)OCO4)n12 | 750 s
Cc1ccc(CNC(=O)c2ccc3ccnc(N4CCN(c5ccc(Cl)cc5)CC4)c3c2)o1 | 887 s
COc1ccccc1-c1nc(Cc2noc(-c3ccccc3)n2)c(C)o1 | 1040 s
O=S(=O)(c1ccc(-c2cnc(C3CCCC3)o2)s1)N1CCN(c2ccccn2)CC1 | 842 s
CCn1nccc1C(=O)N1CCC(c2nc3ccncc3n2CC(C)C)C1 (stereo not drawn) | 555 s
CNC(=O)c1sc2nc(-c3ccccc3)c(NCCCOC)n2c1C | 684 s
CCn1c(C(=O)Nc2ccc(C)c(C)c2)cc2sc(Cl)cc21 | 1300 s
CCCN1C(=O)Cc2cc(C(=O)O)ccc21 | 643 s
CCOC(=O)CCC(=O)Nc1nnc(-c2sc(C)nc2C)o1 | 621 s
COC(=O)c1c(C)[nH]c(C(=O)N2CCCC(C(=O)NCc3ccc(OC(C)C)cc3)C2)c1C (stereo not drawn) | 812 s
COc1ccc(C(C)NC(=O)CCc2ccc3c(ccn3C)c2)cc1OC (stereo not drawn) | 819 s
O=C(NCC1CCN(Cc2cccs2)CC1)C1(c2ccccc2)CCOCC1 | 578 s
CN(C)c1ccc2c(c1)CN(C(=O)c1ccoc1)CCO2 | 573 s
O=S(=O)(c1ccccc1)c1cnc2c(N3CCNCC3)cccc2c1 | 691 s
Cc1ccc(-n2nc(C)c3sc(N4CCCC(C(=O)NC5CCCC5)C4)nc32)cc1 (stereo not drawn) | 1150 s
COc1cc(C(=O)NCCOc2ccc(F)cc2)c([N+](=O)[O-])cc1OC | 777 s
COc1ccc(CCc2nc3nccc(-c4cccnc4)n3n2)cc1OC | 666 s

Structure (SMILES) | RP-LC retention time
O=C(Cn1ccc2ccn(Cc3ccccc3F)c2c1=O)NCc1ccc(F)cc1F | 880 s
COc1cc(C(=O)NC2CCN(c3cc(-c4ccc(F)cc4)[nH]n3)C2)cc(OC)c1OC (stereo not drawn) | 706 s
N#Cc1ccc(CN2CCCC2=O)cc1 | 658 s
CN1CCN(C(=O)c2c3c(nc4ccccc24)C(=O)N(C2CCCCC2)C3)CC1 | 600 s
Cc1ccc(NC(=O)C2CCCN2S(=O)(=O)c2cc3c(cc2C)NC(=O)CO3)cc1C (stereo not drawn) | 794 s
O=C(Nc1cccc(Cl)c1)Nc1cccc(-c2ccc3nncn3n2)c1 | 734 s
Cc1ccc(NC(=O)c2cn(-c3cc(N(C)C)ncn3)cn2)cc1F | 884 s
O=C([C@@H]1C[C@H](Oc2cccnc2)CN1C(=O)C1CCC1)N1CCCC1 | 565 s
O=C(NCc1ccccn1)C1CCCN(c2nccnc2Sc2ccccc2)C1 (stereo not drawn) | 687 s
CC1CCN(S(=O)(=O)c2ccc(-c3nnc(C(=O)NC(C)CCc4ccccc4)o3)cc2)CC1 (stereo not drawn) | 1170 s
Cc1ccsc1C(=O)Nc1ccc(N2CCN(Cc3ccccc3)C2=O)nc1 | 834 s
CCOc1ccc(-c2csc(Nc3ccc(F)cn3)n2)cc1 | 1100 s
CCS(=O)(=O)N1CC(=O)N(c2ccc(Cl)cc2)C(C)(C(=O)NC2CCCCCCC2)C1 (stereo not drawn) | 993 s
CC(C)NC(=O)C1CN(S(=O)(=O)c2ccccc2)c2cc(C(C)(C)C)ccc2O1 (stereo not drawn) | 780 s
CCSc1nnc(-c2nn(C)c3c2CN(S(=O)(=O)c2ccc(CC)cc2)CC3)n1CC | 1030 s
COc1ccc(Cn2cc(S(=O)(=O)N3CCCC3)ccc2=O)cc1 | 796 s
CC(C)c1ccc(NC(=O)Cn2ncc3c(c2=O)N(CC2CC2)C(=O)CS3)cc1 | 934 s
CCCS(=O)(=O)N1CCC(Cc2nc(-c3ccncc3)n[nH]2)C1 (stereo not drawn) | 576 s
COc1ccccc1-n1ccnc(NC(=O)Nc2ccc(F)cc2F)c1=O | 938 s
CCN(CC)C(=O)c1ccc2c(c1)N(CC(=O)N1CCCCC1)C(=O)C1CCCCN21 (stereo not drawn) | 795 s
CCOC(=O)c1c(C)[nH]c(C)c1S(=O)(=O)N1CCC(C(=O)N2CCn3c2nc2ccccc23)CC1 | 725 s
CCn1c(CCC(=O)NCc2ccc(F)cc2)nc2c(C)cccc2c1=O | 848 s
CC(=O)N1CCC(C(=O)N2CCCCCCN(C)C(=O)[C@@H]3CCC[C@@H]32)CC1 | 658 s

Structure (SMILES) | RP-LC retention time
O=C(CSc1nc(-c2ccccc2)ns1)OCc1ccccc1 | 1160 s
OCCOCCNCc1ccc(-c2ccc(F)cc2)o1 | 620 s
COCCNC(=O)Cn1c(N2CCCC2)nc(COC)cc1=O | 570 s
CCC(C)NC(=O)Cn1nc2c3sc(N(C)C)nc3ncn2c1=O (stereo not drawn) | 1130 s
Cc1ccc(C)c(-c2coc(-c3ccc(NC(=O)NCc4ccccc4)cc3)n2)c1 | 1220 s
CC(C(=O)N1CCCN(c2nc3cccnc3o2)CC1)c1ccccc1 (stereo not drawn) | 718 s
Cc1nnc(C2CC3(CCN(Cc4ccccc4)CC3)CN2Cc2ccccc2)o1 (stereo not drawn) | 636 s
OC(c1ccccc1)(c1ccccc1)C1CN2CCC1CC2 (stereo not drawn) | 733 s
Cc1nn(-c2ccc(C(=O)NC3CCCC3)cn2)c(C)c1C | 907 s
Cc1cc(N2CCOCC2)nc(N2CCN(C(=O)c3ccccc3Br)CC2)n1 | 612 s
O=C(NC1CCCCCCC1)C1CCCN(S(=O)(=O)c2c[nH]c(C(=O)N3CCCC3)c2)C1 (stereo not drawn) | 854 s
CCN(CC)C(=O)C1Cn2cccc2C(=O)N1C (stereo not drawn) | 606 s
CC(C)NC(=O)c1cccc(Nc2c(-c3ccc(Cl)cc3)nc3cnccn23)c1 | 687 s
CC(C(=O)NCc1ccco1)C1CCN(C(=O)c2cc3cc(Cl)ccc3[nH]2)CC1 (stereo not drawn) | 841 s
O=C(CN1C(=O)NC(c2ccc(Cl)cc2)C2=C1COC2=O)NCc1ccccc1Cl (stereo not drawn) | 811 s
CN(C)c1cccc(C(=O)NC2CCN(c3cc(-c4ccc(Cl)cc4)[nH]n3)C2)c1 (stereo not drawn) | 865 s
CCn1cc(-c2nc(CC(=O)NC3CCCC3)cs2)c2cccnc21 | 848 s
Cc1cc(C(N)=O)c2cccc(Cl)c2n1 | 621 s
O=C(CN1CCN(Cc2ccccc2F)C1=O)NCc1cccc(Cl)c1 | 831 s
CCOc1ccc(S(=O)(=O)N(CC(=O)N2CCNCC2)CC2CCCO2)cc1 (stereo not drawn) | 626 s
CCCc1ccc(OCC(O)CN2CCN(C)CC2)cc1 (stereo not drawn) | 551 s
COc1ccc(-c2ncc(C(=O)Nc3ccc(OC)cc3OC)c(-c3ccncc3)n2)cc1 | 839 s
